According to ChEMBL document CHEMBL4699645 (2020):
Where a SMILES comes first, the peptide text is derived from it. Bridges are numbered along the chain shown (N, C = ends).

Assays:
[1] = target: Neuronal acetylcholine receptor; alpha3/beta2 (Rattus norvegicus, UniProt P04757+P12390); assay: Antagonist activity at rat alpha3beta2 nAChR expressed in Xenopus laevis oocytes assessed as inhibition of Ach-induced response at -70 mV holding potential incubated for 5 mins by voltage-clamp assay; assay type: cell-based, Oocyte
[2] = target: Neuronal acetylcholine receptor; alpha3/beta4 (Rattus norvegicus, UniProt P04757+P12392); assay: Antagonist activity at rat alpha3beta4 nAChR expressed in Xenopus laevis oocytes assessed as inhibition of Ach-induced response at -70 mV holding potential incubated for 5 mins by voltage-clamp assay; assay type: cell-based, Oocyte
[3] = species: Rattus norvegicus; assay: Selectivity index, ratio of IC50 for rat alpha3beta4 nAChR expressed in Xenopus laevis oocytes to IC50 for rat alpha3beta2 nAChR expressed in Xenopus laevis oocytes; assay type: cell-based
[4] = Displacement of [125I]-alpha-bungarotoxin from Aplysia californica C-terminal His6-tagged N-terminal gp67 signal peptide-tagged acetylcholine receptor binding protein expressed in Hi5 insect cells preincubated for 3 hrs followed by [125I]-alpha-bungarotoxin measured after 5 mins by radioligand binding assay
[5] = target: Neuronal acetylcholine receptor; alpha3/beta2 (Rattus norvegicus) (UniProt P04757+P12390); assay: Antagonist activity at rat alpha3beta2 nAChR expressed in Xenopus laevis oocytes assessed as inhibition of Ach-induced response at -70 mV holding potential incubated for 5 mins by voltage-clamp assay relative to LvIA IC50; assay type: cell-based; settings: Oocyte
[6] = tested on: Hi-5; assay: Displacement of [125I]-alpha-bungarotoxin from Aplysia californica C-terminal His6-tagged N-terminal gp67 signal peptide-tagged acetylcholine receptor binding protein expressed in Hi5 insect cells preincubated for 3 hrs followed by [125I]-alpha-bungarotoxin measured after 5 mins by radioligand binding assay relative to LvIA IC50; settings: time 185.0 min
[7] = target: Neuronal acetylcholine receptor; alpha3/beta4 (Rattus norvegicus) (UniProt P04757+P12392); assay: Antagonist activity at rat alpha3beta4 nAChR expressed in Xenopus laevis oocytes assessed as inhibition of Ach-induced response at -70 mV holding potential incubated for 5 mins by voltage-clamp assay relative to LvIA IC50; assay type: cell-based; settings: Oocyte

Sequence of Neuronal acetylcholine receptor; alpha3/beta2 (P04757 whole entry): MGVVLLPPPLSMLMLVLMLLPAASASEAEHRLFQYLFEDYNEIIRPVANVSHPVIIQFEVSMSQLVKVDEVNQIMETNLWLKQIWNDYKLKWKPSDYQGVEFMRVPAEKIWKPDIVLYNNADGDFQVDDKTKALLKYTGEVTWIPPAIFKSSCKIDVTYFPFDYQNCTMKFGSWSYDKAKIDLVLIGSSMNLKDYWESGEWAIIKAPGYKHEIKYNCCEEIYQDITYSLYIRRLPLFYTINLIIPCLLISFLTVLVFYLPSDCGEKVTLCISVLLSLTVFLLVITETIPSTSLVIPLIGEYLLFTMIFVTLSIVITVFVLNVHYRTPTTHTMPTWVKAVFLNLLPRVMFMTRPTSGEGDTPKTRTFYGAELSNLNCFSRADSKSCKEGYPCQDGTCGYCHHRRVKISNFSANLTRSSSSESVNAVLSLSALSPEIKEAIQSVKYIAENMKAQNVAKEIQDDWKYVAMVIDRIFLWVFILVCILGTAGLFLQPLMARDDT
Sequence of Neuronal acetylcholine receptor; alpha3/beta2 (P12390 whole entry): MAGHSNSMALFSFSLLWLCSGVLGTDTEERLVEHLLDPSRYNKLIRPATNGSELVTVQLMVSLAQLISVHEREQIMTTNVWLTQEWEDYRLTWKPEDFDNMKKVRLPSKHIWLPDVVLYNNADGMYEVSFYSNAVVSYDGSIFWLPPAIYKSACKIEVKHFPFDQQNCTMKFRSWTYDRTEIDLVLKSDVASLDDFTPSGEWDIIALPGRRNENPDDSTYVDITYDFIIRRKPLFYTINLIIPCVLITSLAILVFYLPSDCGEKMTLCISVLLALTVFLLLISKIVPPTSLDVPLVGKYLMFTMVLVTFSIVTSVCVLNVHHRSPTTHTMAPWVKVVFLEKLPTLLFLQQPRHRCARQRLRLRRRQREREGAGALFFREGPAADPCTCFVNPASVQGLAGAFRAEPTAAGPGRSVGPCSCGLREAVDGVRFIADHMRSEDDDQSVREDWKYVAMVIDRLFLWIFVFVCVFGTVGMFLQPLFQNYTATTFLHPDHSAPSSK
Sequence of Neuronal acetylcholine receptor; alpha3/beta4 (P04757 whole entry): as the sequence (P04757 whole entry) above
Sequence of Neuronal acetylcholine receptor; alpha3/beta4 (P12392 whole entry): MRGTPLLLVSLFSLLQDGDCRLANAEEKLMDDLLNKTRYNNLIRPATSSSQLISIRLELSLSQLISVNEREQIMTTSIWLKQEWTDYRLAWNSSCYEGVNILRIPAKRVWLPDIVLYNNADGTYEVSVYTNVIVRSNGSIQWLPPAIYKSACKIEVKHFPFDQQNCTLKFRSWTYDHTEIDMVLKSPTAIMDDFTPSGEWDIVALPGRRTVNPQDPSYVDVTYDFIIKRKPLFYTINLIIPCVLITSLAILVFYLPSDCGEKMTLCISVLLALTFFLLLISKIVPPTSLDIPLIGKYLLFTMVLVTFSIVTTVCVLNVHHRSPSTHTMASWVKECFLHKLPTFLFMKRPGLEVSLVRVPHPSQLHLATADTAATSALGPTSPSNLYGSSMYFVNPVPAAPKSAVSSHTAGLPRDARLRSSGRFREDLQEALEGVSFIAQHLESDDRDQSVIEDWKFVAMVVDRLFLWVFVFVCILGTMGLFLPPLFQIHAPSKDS

Row | Compound | IC50 [1] [nM] | IC50 [2] [nM] | Ratio IC50 [3] | IC50 [4] [nM] | Ratio IC50 [5] | Ratio IC50 [6] | Ratio IC50 [7]
1 | CC[C@H](C)[C@@H]1NC(=O)[C@H](CCC(=O)O)NC(=O)[C@@H]2CCCN2C(=O)[C@H](Cc2cnc[nH]2)NC(=O)[C@H](C)NC(=O)[C@H](C(C)C)NC(=O)[C@H](CC(N)=O)NC(=O)[C@@H]2CSSC[C@H](NC(=O)CN)C(=O)N[C@@H](CSSC[C@@H](C(N)=O)NC1=O)C(=O)N[C@@H](CO)C(=O)N[C@@H](Cc1cnc[nH]1)C(=O)N1CCC[C@H]1C(=O)N[C@@H](C)C(=O)N2 (H-GCCSHPACNVAHPEIC-NH2; disulfide 2-8, 3-16) | 12 | 67.9 | 5.7 | 94 | 0.8 | -1.39 | 0.2
2 | CC[C@H](C)[C@@H]1NC(=O)[C@H](C)NC(=O)[C@@H]2CCCN2C(=O)[C@H](Cc2cnc[nH]2)NC(=O)[C@H](CC(=O)O)NC(=O)[C@H](C(C)C)NC(=O)[C@H](CC(N)=O)NC(=O)[C@@H]2CSSC[C@H](NC(=O)CN)C(=O)N[C@@H](CSSC[C@@H](C(N)=O)NC1=O)C(=O)N[C@@H](CO)C(=O)N[C@@H](Cc1cnc[nH]1)C(=O)N1CCC[C@H]1C(=O)N[C@@H](C)C(=O)N2 (H-GCCSHPACNVDHPAIC-NH2; disulfide 2-8, 3-16) | 29 | 181 | 6.2 | 760 | 1.9 | -0.48 | 0.6
3 | CC[C@H](C)[C@@H]1NC(=O)[C@H](CCC(=O)O)NC(=O)[C@@H]2CCCN2C(=O)[C@H](C)NC(=O)[C@H](CC(=O)O)NC(=O)[C@H](C(C)C)NC(=O)[C@H](CC(N)=O)NC(=O)[C@@H]2CSSC[C@H](NC(=O)CN)C(=O)N[C@@H](CSSC[C@@H](C(N)=O)NC1=O)C(=O)N[C@@H](CO)C(=O)N[C@@H](Cc1cnc[nH]1)C(=O)N1CCC[C@H]1C(=O)N[C@@H](C)C(=O)N2 (H-GCCSHPACNVDAPEIC-NH2; disulfide 2-8, 3-16) | > 10000 | > 10000 |  | 670000 |  | 2.46 | 
4 | CC[C@H](C)[C@@H]1NC(=O)[C@H](CCC(=O)O)NC(=O)[C@@H]2CCCN2C(=O)[C@H](Cc2cnc[nH]2)NC(=O)[C@H](CC(=O)O)NC(=O)[C@H](C(C)C)NC(=O)[C@H](CC(N)=O)NC(=O)[C@@H]2CSSC[C@H](NC(=O)CN)C(=O)N[C@@H](CSSC[C@@H](C(N)=O)NC1=O)C(=O)N[C@@H](CO)C(=O)N[C@@H](Cc1cnc[nH]1)C(=O)N[C@@H](C)C(=O)N[C@@H](C)C(=O)N2 (H-GCCSHAACNVDHPEIC-NH2; disulfide 2-8, 3-16) | > 10000 | > 10000 |  | 34000 |  | 1.17 | 
5 | CC[C@H](C)[C@@H]1NC(=O)[C@H](CCC(=O)O)NC(=O)[C@@H]2CCCN2C(=O)[C@H](Cc2cnc[nH]2)NC(=O)[C@H](CC(=O)O)NC(=O)[C@H](C(C)C)NC(=O)[C@H](CC(=O)O)NC(=O)[C@@H]2CSSC[C@H](NC(=O)CN)C(=O)N[C@@H](CSSC[C@@H](C(N)=O)NC1=O)C(=O)N[C@@H](CO)C(=O)N[C@@H](Cc1cnc[nH]1)C(=O)N1CCC[C@H]1C(=O)N[C@@H](C)C(=O)N2 (H-GCCSHPACDVDHPEIC-NH2; disulfide 2-8, 3-16) | > 10000 | > 10000 |  |  | 0.24 |  | 7.1
6 | CC[C@H](C)[C@@H]1NC(=O)[C@H](CCC(=O)O)NC(=O)[C@@H]2CCCN2C(=O)[C@H](Cc2cnc[nH]2)NC(=O)[C@H](CC(=O)O)NC(=O)[C@H](C(C)C)NC(=O)[C@H](CC(N)=O)NC(=O)[C@@H]2CSSC[C@H](NC(=O)CN)C(=O)N[C@@H](CSSC[C@@H](C(N)=O)NC1=O)C(=O)N[C@@H](CO)C(=O)N[C@@H](C)C(=O)N1CCC[C@H]1C(=O)N[C@@H](C)C(=O)N2 (H-GCCSAPACNVDHPEIC-NH2; disulfide 2-8, 3-16) | > 10000 | > 10000 |  | 310000 |  | 2.13 | 
7 | CC(C)[C@@H]1NC(=O)[C@H](CC(N)=O)NC(=O)[C@@H]2CSSC[C@H](NC(=O)CN)C(=O)N[C@@H](CSSC[C@@H](C(N)=O)NC(=O)[C@H](C)NC(=O)[C@H](CCC(=O)O)NC(=O)[C@@H]3CCCN3C(=O)[C@H](Cc3cnc[nH]3)NC(=O)[C@H](CC(=O)O)NC1=O)C(=O)N[C@@H](CO)C(=O)N[C@@H](Cc1cnc[nH]1)C(=O)N1CCC[C@H]1C(=O)N[C@@H](C)C(=O)N2 (H-GCCSHPACNVDHPEAC-NH2; disulfide 2-8, 3-16) | 1080 | 1400 | 1.3 | 24000 | 69 | 1.02 | 4.8
8 | CC[C@H](C)[C@@H]1NC(=O)[C@H](CCC(=O)O)NC(=O)[C@H](C)NC(=O)[C@H](Cc2cnc[nH]2)NC(=O)[C@H](CC(=O)O)NC(=O)[C@H](C(C)C)NC(=O)[C@H](CC(N)=O)NC(=O)[C@@H]2CSSC[C@H](NC(=O)CN)C(=O)N[C@@H](CSSC[C@@H](C(N)=O)NC1=O)C(=O)N[C@@H](CO)C(=O)N[C@@H](Cc1cnc[nH]1)C(=O)N1CCC[C@H]1C(=O)N[C@@H](C)C(=O)N2 (H-GCCSHPACNVDHAEIC-NH2; disulfide 2-8, 3-16) | 202 | 543 | 2.7 | 7500 | 13 | 0.51 | 1.9
9 | CC[C@H](C)[C@@H]1NC(=O)[C@H](CCC(=O)O)NC(=O)[C@@H]2CCCN2C(=O)[C@H](Cc2cnc[nH]2)NC(=O)[C@H](CC(=O)O)NC(=O)[C@H](C(C)C)NC(=O)[C@H]([C@@H](C)CC)NC(=O)[C@@H]2CSSC[C@H](NC(=O)CN)C(=O)N[C@@H](CSSC[C@@H](C(N)=O)NC1=O)C(=O)N[C@@H](CO)C(=O)N[C@@H](Cc1cnc[nH]1)C(=O)N1CCC[C@H]1C(=O)N[C@@H](C)C(=O)N2 (H-GCCSHPACIVDHPEIC-NH2; disulfide 2-8, 3-16) | 7.5 | 5560 | 742 |  | 0.21 |  | 1.1
10 | CC[C@H](C)[C@@H]1NC(=O)[C@H](CCC(=O)O)NC(=O)[C@@H]2CCCN2C(=O)[C@H](Cc2cnc[nH]2)NC(=O)[C@H](CC(=O)O)NC(=O)[C@H](C)NC(=O)[C@H](CC(N)=O)NC(=O)[C@@H]2CSSC[C@H](NC(=O)CN)C(=O)N[C@@H](CSSC[C@@H](C(N)=O)NC1=O)C(=O)N[C@@H](CO)C(=O)N[C@@H](Cc1cnc[nH]1)C(=O)N1CCC[C@H]1C(=O)N[C@@H](C)C(=O)N2 (H-GCCSHPACNADHPEIC-NH2; disulfide 2-8, 3-16) | 71 | 309 | 4.4 | 2500 | 4.5 | 0.036 | 1.1
11 | CC[C@H](C)[C@@H]1NC(=O)[C@H](CCC(=O)O)NC(=O)[C@@H]2CCCN2C(=O)[C@H](Cc2cnc[nH]2)NC(=O)[C@H](CC(=O)O)NC(=O)[C@H](C(C)C)NC(=O)[C@H](CCCCN)NC(=O)[C@@H]2CSSC[C@H](NC(=O)CN)C(=O)N[C@@H](CSSC[C@@H](C(N)=O)NC1=O)C(=O)N[C@@H](CO)C(=O)N[C@@H](Cc1cnc[nH]1)C(=O)N1CCC[C@H]1C(=O)N[C@@H](C)C(=O)N2 (H-GCCSHPACKVDHPEIC-NH2; disulfide 2-8, 3-16) | 3.8 | 2070 | 544 |  |  |  | 
12 | CC[C@H](C)[C@@H]1NC(=O)[C@H](CCC(=O)O)NC(=O)[C@@H]2CCCN2C(=O)[C@H](Cc2cnc[nH]2)NC(=O)[C@H](CC(=O)O)NC(=O)[C@H](C(C)C)NC(=O)CNC(=O)[C@@H]2CSSC[C@H](NC(=O)CN)C(=O)N[C@@H](CSSC[C@@H](C(N)=O)NC1=O)C(=O)N[C@@H](CO)C(=O)N[C@@H](Cc1cnc[nH]1)C(=O)N1CCC[C@H]1C(=O)N[C@@H](C)C(=O)N2 (H-GCCSHPACGVDHPEIC-NH2; disulfide 2-8, 3-16) | > 10000 | > 10000 |  |  | 0.48 |  | 19.2
13 | CC[C@H](C)[C@@H]1NC(=O)[C@H](CCC(=O)O)NC(=O)[C@@H]2CCCN2C(=O)[C@H](Cc2cnc[nH]2)NC(=O)[C@H](CC(=O)O)NC(=O)[C@H](C(C)C)NC(=O)[C@H](CC(N)=O)NC(=O)[C@@H]2CSSC[C@H](NC(=O)[C@H](C)N)C(=O)N[C@@H](CSSC[C@@H](C(N)=O)NC1=O)C(=O)N[C@@H](CO)C(=O)N[C@@H](Cc1cnc[nH]1)C(=O)N1CCC[C@H]1C(=O)N[C@@H](C)C(=O)N2 (H-ACCSHPACNVDHPEIC-NH2; disulfide 2-8, 3-16) | 375 | 975 | 2.6 | 11800 | 24 | 0.71 | 3.4
14 | CC[C@H](C)[C@@H]1NC(=O)[C@H](CCC(=O)O)NC(=O)[C@@H]2CCCN2C(=O)[C@H](Cc2cnc[nH]2)NC(=O)[C@H](CC(=O)O)NC(=O)[C@H](C(C)C)NC(=O)[C@H](CC(C)C)NC(=O)[C@@H]2CSSC[C@H](NC(=O)CN)C(=O)N[C@@H](CSSC[C@@H](C(N)=O)NC1=O)C(=O)N[C@@H](CO)C(=O)N[C@@H](Cc1cnc[nH]1)C(=O)N1CCC[C@H]1C(=O)N[C@@H](C)C(=O)N2 (H-GCCSHPACLVDHPEIC-NH2; disulfide 2-8, 3-16) | 3.2 | 325 | 102 |  |  |  | 
15 | CC[C@H](C)[C@@H]1NC(=O)[C@H](CCC(=O)O)NC(=O)[C@@H]2CCCN2C(=O)[C@H](Cc2cnc[nH]2)NC(=O)[C@H](CC(=O)O)NC(=O)[C@H](C(C)C)NC(=O)[C@H](CC(N)=O)NC(=O)[C@@H]2CSSC[C@H](NC(=O)CN)C(=O)N[C@@H](CSSC[C@@H](C(N)=O)NC1=O)C(=O)N[C@@H](C)C(=O)N[C@@H](Cc1cnc[nH]1)C(=O)N1CCC[C@H]1C(=O)N[C@@H](C)C(=O)N2 (H-GCCAHPACNVDHPEIC-NH2; disulfide 2-8, 3-16) | 54 | 193 | 3.6 | 780 | 3.5 | -0.47 | 0.7
